In patent US10098887B2, “Antiviral compounds and methods of use thereof” (Trana Discovery, Inc., priority 2010, dated 2018):

Columns and labels:
[1] = test system: interaction between Human tRNA^Lys3 and HIV-1 genomic RNA; assay: Biochemical HIV-1 tRNA Inhibition Assay (AlphaScreen); type: binding; parameters: key: +: showing some activity; ++: intermediate activity; +++: the highest activity; conditions: active compounds from high throughput screening, prioritized on IC50
Description: The methods for detecting binding of the target RNA to the tRNA or the inhibition of such binding may be performed using any method for such detection. For example, the AlphaScreen® assay (Packard Instrument Company, Meriden, Conn.). AlphaScreen® technology is an “Amplified Luminescent Proximity Homogeneous Assay” method utilizing latex microbeads (250 nm diameter) containing a photosensitizer (donor beads), or chemiluminescent groups and fluorescent acceptor molecules (acceptor beads). Upon illumination with laser light at 680 nm, the photosensitizer in the donor bead converts ambient oxygen to singlet-state oxygen. The excited singlet-state oxygen molecules diffuse approximately 250 nm (one bead diameter) before rapidly decaying. If the acceptor bead is in close proximity to the donor bead (i.e., by virtue of the interaction of the target RNA and tRNA fragment), the singlet-state oxygen molecules reacts with chemiluminescent groups in the acceptor beads, which immediately transfer energy to fluorescent acceptors in the same bead. These fluorescent acceptors shift the emission wavelength to 520-620 nm, resulting in a detectable signal. Antagonists of the interaction of the target RNA with the tRNA fragment will thus inhibit the shift in emission wavelength, whereas agonists of this interaction would enhance it.
In the AlphaScreen configuration (FIG. 3) the assay is done in solution using the same RNA as the immobilization assay. The donor and acceptor beads are bound to their respective RNA's. During the screening the RNAs and test drugs/small molecules are incubated together and formation of the complex is measured using the AlphaScreen detection conditions. Utilization of the AlphaScreen assay may allow for the assay to be run at a lower RNA concentration at room temperature, and increase the stability of the complex.
HIV-1 has evolved to use Human tRNA^Lys3 as a primer for initiation of reverse transcription. Therefore, the interaction between tRNA^Lys3 and viral genomic RNA represents a potential novel target for HIV-1 drug development. Based on this hypothesis, a biochemical assay to identify inhibitors of the interaction between Human tRNA^Lys3 and HIV-1 genomic RNA was developed by TRANA Discovery and transferred to Southern Research Institute for high-throughput screening. This assay was developed as a homogeneous amplified luminescent proximity assay using AlphaScreen™ reagents from PerkinElmer. Based on this assay technology, the AlphaScreen™ luminescent signal serves as a mechanism for detecting the interaction between RNA molecules that represent Human tRNA^Lys3 and HIV-1 genomic RNA. The inhibition of the interaction between these RNA molecules by test compounds is detected as a decrease in the AlphaScreen™ luminescent signal.
A preliminary 15,000 compound screen (NINDS Diversity Set) was previously completed and the results were reported through NIAID contract N01-AI-70042. For the results described herein, a 101,000 compound library that was purchased from ChemBridge for the NIAID TAACF program was used. This library was carefully selected for diversity and minimal similarity to the 100,000 compound NINDS library, which is also planned to be screened using the TRANA Discovery Biochemical HIV-1 tRNA Inhibition Assay. The compounds were screened at a concentration of 12.5 μg/mL (first 3 batches) or 25 μg/mL (fourth and final batch).

[2] = assays described herein (not specified)

SMILES	Activity [1]	active in the assays described herein [2]
CN(CCN(C)N=Cc1cccc([N+](=O)[O-])c1)N=Cc1cccc([N+](=O)[O-])c1 [3-nitrobenzaldehyde 1,2-ethanediyl(methylhydrazone)]	+	–
Cc1ccc2c(c1)-c1c(s[s+]c1SCC(=O)c1ccc([N+](=O)[O-])cc1)C(C)(C)N2.[Cl-] [4,4,8-trimethyl-1-{[2-(4-nitrophenyl)-2-oxoethyl]thio}-4,5-dihydro[1,2]dithiolo[3,4-c]quinolin-2-ium chloride]	++	–
O=[N+]([O-])c1ccc(Nc2ccc(O)cc2)c2nonc12 [4-[(7-nitro-2,1,3-benzoxadiazol-4-yl)amino]phenol]	++	–
CN1C(=O)C(=Cc2c(Cl)ccc([N+](=O)[O-])c2Cl)SC1=S [5-(2,6-dichloro-3-nitrobenzylidene)-3-methyl-2-thioxo-1,3-thiazolidin-4-one]	++	–
O=C1NC(=O)N(c2cccc3ccccc23)C(=O)C1=Cc1ccco1 [5-(2-furylmethylene)-1-(1-naphthyl)-2,4,6(1H,3H,5H)-pyrimidinetrione]	+	–
O=C1C(=Cc2ccc(O)c(O)c2)SC(=S)N1c1cccc(F)c1 [5-(3,4-dihydroxybenzylidene)-3-(3-fluorophenyl)-2-thioxo-1,3-thiazolidin-4-one]	++	–
CCN1C(=O)C(=Cc2ccc(O)c(O)c2)SC1=S [5-(3,4-dihydroxybenzylidene)-3-ethyl-2-thioxo-1,3-thiazolidin-4-one]	+	–
O=C1C(=Cc2ccc(O)c(O)c2)SC(=S)N1c1ccccc1 [5-(3,4-dihydroxybenzylidene)-3-phenyl-2-thioxo-1,3-thiazolidin-4-one]	+	–
CC(=O)N1c2ccc(C)cc2-c2c(ssc2=S)C1(C)C [5-acetyl-4,4,8-trimethyl-4,5-dihydro-1H[1,2]dithiolo[3,4-c]quinoline-1-thione]	+	–
CCOc1ccc2c(c1)-c1c(ssc1=S)C(C)(C)N2C(C)=O [5-acetyl-8-ethoxy-4,4-dimethyl-4,5-dihydro-1H-[1,2]dithiolo[3,4-c]quinoline-1-thione]	+	–
COc1ccc2c(c1)-c1c(ssc1=S)C(C)(C)N2C(C)=O [5-acetyl-8-methoxy-4,4-dimethyl-4,5-dihydro-1H-[1,2]dithiolo[3,4-c]quinoline-1-thione]	+	–
Cc1ccc(C=NNc2ccccc2[N+](=O)[O-])o1 [5-methyl-2-furaldehyde (2-nitrophenyl)hydrazone]	+	–
Cc1[nH]c(=O)[nH]c1C(=O)CCCCC(=O)O [6-(5-methyl-2-oxo-2,3-dihydro-1H-imidazol-4-yl)-6-oxohexanoic acid]	+++	–
CCOc1ccc2c(c1)-c1c(s[s+]c1SC)C(C)(C)N2.[Cl-] [8-ethoxy-4,4-dimethyl-1-(methylthio)-4,5-dihydro[1,2]dithiolo[3,4-c]quinolin-2-ium chloride]	++	–
COc1ccccc1N1CCN(CC=Cc2ccc(N(C)C)cc2)CC1 [(4-{3-[4-(2-methoxyphenyl)-1-piperazinyl]-1-propen-1-yl}phenyl)dimethylamine]	+	–
CN(C)c1ccc(C(O)(c2ccc(N(C)C)cc2)c2ccc(N(C)C)cc2)cc1 [Compound 7, tris[4-(dimethylamino)phenyl]methanol]	–	active
O=C(O)CCCCC1SCC2NC(=O)NC21 (stereo not shown) [Compound 8, 5-(2-oxohexahydro-1H-thieno[3,4-d]imidazol-4-yl)pentanoic acid]	–	active
CCc1ccc(C2=CC(=O)c3ccccc3C2=O)cc1 [Compound 26, 2-(4-ethylphenyl)naphthoquinone]	–	active
CCc1ccc(N2N=C(C)C(=Cc3ccc(N4CCOCC4)cc3)C2=O)cc1 [Compound 32, 2-(4-ethylphenyl)-5-methyl-4-[4-(4-morpholinyl)benzylidene]-2,4-dihydro-3H-pyrazol-3-one]	–	active
O=c1cc2oc3cc(O)c(O)cc3c(-c3ccc([N+](=O)[O-])o3)c-2cc1O [Compound 38, 2,6,7-trihydroxy-9-(5-nitro-2-furyl)-3H-xanthen-3-one]	–	active

SMILES	Activity [1]	active in the assays described herein [2]
CNC(=S)N1N=C(c2ccc(OC)cc2)CC1c1ccc(N(C)C)cc1 (stereo not shown) [Compound 40, 5-[4-(dimethylamino)phenyl]-3-(4-methoxyphenyl)-N-methyl-4,5-dihydro-1H-pyrazole-1-carbothioamide]	–	active
COc1ccc(C(=C2C=CC=C2)c2ccc(OC)cc2)cc1 [Compound 46, 1,1′-(2,4-cyclopentadien-1-ylidenemethylene)bis(4-methoxybenzene)]	–	active
CCc1cc2c(=S)c(-c3ccccc3Cl)coc2cc1OC [Compound 47, 3-(2-chlorophenyl)-6-ethyl-7-methoxy-4H-chromene-4-thione]	–	active
O=C1c2ccc([N+](=O)[O-])cc2C(=O)N1C1CC2CCC1C2 (stereo not shown) [Compound 57, 2-bicyclo[2.2.1]hept-2-yl-5-nitro-1H-isoindole-1,3(2H)-dione]	–	active
Br.CCN(CC)c1ccc(Nc2nc(-c3ccccn3)cs2)cc1 [N,N-diethyl-N′-[4-(2-pyridinyl)-1,3-thiazol-2-yl]-1,4-benzenediamine hydrobromide]	+	–
Cc1ccc2nc3c(c(Nc4ccc(N(C)C)cc4)c2c1)CCC3 [N,N-dimethyl-N′-(7-methyl-2,3-dihydro-1H-cyclopenta[b]quinolin-9-yl)-1,4-benzenediamine]	+	–
Cc1nc(NC(=N)N)nc2c(C)cccc12 [N-(4,8-dimethyl-2-quinazolinyl)guanidine]	+	–
CCOc1nc(NC(=N)N)nc2c(C)cccc12 [N-(4-ethoxy-8-methyl-2-quinazolinyl)guanidine]	++	–
CCOc1ccc(Nc2ccc([N+](=O)[O-])c3nonc23)cc1 [N-(4-ethoxyphenyl)-7-nitro-2,1,3-benzoxadiazol-4-amine]	+	–
COc1ccc2c(C)nc(NC(=N)N)nc2c1 [N-(7-methoxy-4-methyl-2-quinazolinyl)guanidine]	+	–
CCN(CC)c1ccc(NC(=S)NC(=O)c2cccc(OC(C)C)c2)cc1 [N-({[4-(diethylamino)phenyl]amino}carbonothioyl)-3-isopropoxybenzamide]	+	–
CCN(CC)CCN(CC)Cc1ccc(N(C)C)cc1 [N-[4-(dimethylamino)benzyl]-N,N′,N′-triethyl-1,2-ethanediamine]	+	–
CCOC(=O)C(C(=O)c1ccccc1)C1=CC(=O)C(=O)c2ccc(Br)cc21 (stereo not shown) [ethyl 2-(7-bromo-3,4-dioxo-3,4-dihydro-1-naphthalenyl)-3-oxo-3-phenylpropanoate]	+	–
CCOC(=O)c1ccc(NC2=C(N3CCOCC3)C(=O)c3ccccc3C2=O)cc1 [ethyl 4-{[3-(4-morpholinyl)-1,4-dioxo-1,4-dihydro-2-naphthalenyl]amino}benzoate]	++	–
CCOC(=O)c1cc(N)ccc1-c1c2ccc(=O)cc-2oc2cc(O)ccc12 [ethyl 5-amino-2-(6-hydroxy-3-oxo-3H-xanthen-9-yl)benzoate]	+++	–
CCOC(=O)CCCCC(=O)c1[nH]c(=O)[nH]c1C [ethyl 6-(5-methyl-2-oxo-2,3-dihydro-1H-imidazol-4-yl)-6-oxohexanoate]	++	–
CCOC(=O)C=C1NC(c2ccccc2)=C(c2ccccc2)C1=O [ethyl (3-oxo-4,5-diphenyl-1,3-dihydro-2H-pyrrol-2-ylidene)acetate]	++	–
COC(=O)c1ccc(NC2=C(N3CCCC3)C(=O)c3ccccc3C2=O)cc1 [methyl 4-{[1,4-dioxo-3-(1-pyrrolidinyl)-1,4-dihydro-2-naphthalenyl]amino}benzoate]	++	–
COC(=O)c1ccc(NC2=C(N3CCOCC3)C(=O)c3ccccc3C2=O)cc1 [methyl 4-{[3-(4-morpholinyl)-1,4-dioxo-1,4-dihydro-2-naphthalenyl]amino}benzoate]	++	–
COC(=O)c1ccc(N2CCCCC2)c2c1C(=O)c1ccccc1C2=O [methyl 9,10-dioxo-4-(1-piperidinyl)-9,10-dihydro-1-anthracenecarboxylate]	++	–
